For assay [1], the system named is SGC-7901. Put plainly: Cytotoxicity against human SGC7901 cells assessed as growth inhibition after 72 hrs by MTT assay. The format is functional, cell-based. Particulars: SGC-7901, 72 h. Background: Tetrazolium dyes change colour on reduction, which living cells bring about.
Assay [2] deals with HepG2. The experiment in a line: Cytotoxicity against human HepG2 cells assessed as growth inhibition after 72 hrs by MTT assay. Type of assay: functional, cell-based. To be noted: HepG2, 72 h.
In assay [3] the test system is HepG2. The experiment in a line: Cytotoxicity against human HepG2 cells assessed as growth inhibition at 40 ug/mL after 72 hrs by MTT assay. Type of assay: functional. Particulars: HepG2, 72 h, read-out: GI.
Assay [4] in a line: Cytotoxicity against African green monkey MARC145 cells assessed as growth inhibition at 40 ug/mL after 72 hrs by MTT assay. Particulars: Chlorocebus aethiops, MARC145, 72 h; read-out: GI. The format is functional.
Assay [5] in a line: Cytotoxicity against human A875 cells assessed as growth inhibition at 40 ug/mL after 72 hrs by MTT assay. The format is functional. Particulars: A875, 72 h, read-out: GI.
Assay [6] has as its system SGC-7901. Put plainly: Cytotoxicity against human SGC7901 cells assessed as growth inhibition at 40 ug/mL after 72 hrs by MTT assay. Type of assay: functional. To be noted: SGC-7901, 72 h, read-out: GI.
Assay [7] can be described thus: Cytotoxicity against human A875 cells assessed as growth inhibition after 72 hrs by MTT assay. Type of assay: functional, cell-based. Particulars: A875, 72 h.
Assay [8] can be described thus: Cytotoxicity against African green monkey MARC145 cells assessed as growth inhibition after 72 hrs by MTT assay. Type of assay: functional, cell-based. Particulars: Chlorocebus aethiops, MARC145, 72 h.

By IC50 is commonly meant the point on the concentration scale where inhibition reaches its midpoint.

`O=C(c1c[nH]c2ccccc12)c1nccc2c1[nH]c1ccccc12`: the IC50 was more than 120 µM in the assay with SGC-7901 [1], more than 120 µM in the assay with HepG2 [2], 75.8 µM in assay [7] and more than 120 µM in assay [8]. In addition, the inhibition of growth at 40 µg/mL with HepG2 [3] turned out to be 30.5%; in assay [4] it was 34.6%; in assay [5], 59.1%; with SGC-7901 [6], 43.2%.

As to `O=C(NCCc1c[nH]c2ccccc12)c1cc2c([nH]c3ccccc32)c(C(=O)c2c[nH]c3ccccc23)n1`, the IC50 is 38.6 µM with SGC-7901 [1], 41 µM in the assay on HepG2 [2], 50.4 µM in assay [7] and 44.1 µM in assay [8]. In addition, the inhibition of growth at 40 µg/mL in the assay on HepG2 [3] was found to be 74.4%; in assay [4], 67%; in assay [5] it was 77.8%; with SGC-7901 [6], 76.6%.

Regarding `CS(=O)(=O)CCNC(=O)c1cc2c([nH]c3ccccc32)c(C(=O)c2c[nH]c3ccccc23)n1`, the IC50 in the assay on SGC-7901 [1] amounted to 6.82 µM; with HepG2 [2], 7.69 µM; in assay [7] it was 8.43 µM; in assay [8], 7.19 µM. Further, the inhibition of growth at 40 µg/mL in the assay on HepG2 [3] was 87.3%; in assay [4], 90.2%; in assay [5] it was 87.9%; with SGC-7901 [6], 88.5%.

On to `Cc1ccc(CNC(=O)c2cc3c([nH]c4ccccc43)c(C(=O)c3c[nH]c4ccccc34)n2)cc1`, for which the half-maximal inhibitory concentration (IC50) in the assay with SGC-7901 [1] was 66 µM; in the assay on HepG2 [2], 65.3 µM; in assay [7], more than 85 µM; in assay [8] it was 73.2 µM. For the same compound, the inhibition of growth at 40 µg/mL in the assay with HepG2 [3] is 63.9%; in assay [4], 55%; in assay [5] it was 27%; in the assay with SGC-7901 [6], 64%.

Take `O=C(NCCc1ccc(F)cc1)c1cc2c([nH]c3ccccc32)c(C(=O)c2c[nH]c3ccccc23)n1`: the IC50 was 34 µM with SGC-7901 [1], 38.5 µM with HepG2 [2], more than 80 µM in assay [7] and 48.8 µM in assay [8]. Further, the inhibition of growth at 40 µg/mL was 72.4% with HepG2 [3], 63% in assay [4], 33.9% in assay [5] and 76.7% in the assay on SGC-7901 [6].

For the compound `O=c1[nH]cc(F)c(=O)[nH]1` [FLUOROURACIL], the IC50 in the assay with SGC-7901 [1] is 53.6 µM; in the assay on HepG2 [2], 66.4 µM; in assay [7], 62.1 µM; in assay [8], 116 µM. Also, the inhibition of growth at 40 µg/mL with HepG2 [3] came to 72.6%; in assay [4], 66.7%; in assay [5] it was 61%; with SGC-7901 [6], 79.9%.

Regarding `COc1cccc(CCNC(=O)c2cc3c([nH]c4ccccc43)c(C(=O)c3c[nH]c4ccccc34)n2)c1`, the IC50 (in the assay on SGC-7901 [1]; in the assay with HepG2 [2]; in assay [7]; in assay [8]) was more than 80 µM each time. Further, the inhibition of growth at 40 µg/mL in the assay on HepG2 [3] came out at 40.1%; in assay [4], 48.4%; in assay [5], 16.6%; in the assay with SGC-7901 [6] it was 39.3%.

For the compound `COc1ccc(CCNC(=O)c2cc3c([nH]c4ccccc43)c(C(=O)c3c[nH]c4ccccc34)n2)cc1OC`, the IC50 (with SGC-7901 [1]; with HepG2 [2]; in assay [7]; in assay [8]) was more than 75 µM each time. The inhibition of growth at 40 µg/mL in the assay with HepG2 [3] stood at 31.7%; in assay [4], 38.4%; in assay [5] it was 0%; in the assay on SGC-7901 [6] it was 22.1%.

For the compound `O=C(O)c1cc2c([nH]c3ccccc32)c(C(=O)c2c[nH]c3ccccc23)n1`, the IC50 in the assay on SGC-7901 [1] was determined as 67.7 µM; with HepG2 [2], 51.8 µM; in assay [7], 48.8 µM; in assay [8], 41.9 µM. The inhibition of growth at 40 µg/mL in the assay with HepG2 [3] amounted to 78.4%; in assay [4] it was 72%; in assay [5] it was 72.2%; with SGC-7901 [6], 63%.

With `COc1ccc(NC(=O)c2cc3c([nH]c4ccccc43)c(C(=O)c3c[nH]c4ccccc34)n2)cc1`, the IC50 with SGC-7901 [1] is more than 85 µM; in the assay with HepG2 [2], more than 85 µM; in assay [7], 65.4 µM; in assay [8], more than 85 µM. In addition, the inhibition of growth at 40 µg/mL with HepG2 [3] was found to be 44.8%; in assay [4] it was 42%; in assay [5] it was 72.1%; in the assay on SGC-7901 [6] it was 41.2%.

Turning to `O=C(NCc1ccc(F)cc1)c1cc2c([nH]c3ccccc32)c(C(=O)c2c[nH]c3ccccc23)n1`, the IC50 in the assay on SGC-7901 [1] was 34.5 µM; in the assay on HepG2 [2], 39 µM; in assay [7], 63.1 µM; in assay [8] it was 55.1 µM. The inhibition of growth at 40 µg/mL was 73.9% in the assay on HepG2 [3], 63.8% in assay [4], 68.1% in assay [5] and 78.8% with SGC-7901 [6].

Take `O=C(Nc1ccc(F)cc1)c1cc2c([nH]c3ccccc32)c(C(=O)c2c[nH]c3ccccc23)n1`: the IC50 (in the assay with SGC-7901 [1]; with HepG2 [2]; in assay [7]; in assay [8]) was more than 85 µM throughout. In addition, the inhibition of growth at 40 µg/mL with HepG2 [3] was 34.8%; in assay [4] it was 47.5%; in assay [5], 20.7%; in the assay with SGC-7901 [6], 34%.

As for `COC(=O)C(CO)NC(=O)c1cc2c([nH]c3ccccc32)c(C(=O)c2c[nH]c3ccccc23)n1` (stereo not given), the IC50 in the assay with SGC-7901 [1] is 14.3 µM; with HepG2 [2], 9.99 µM; in assay [7] it was 10.5 µM; in assay [8], 16.3 µM. For the same compound, the inhibition of growth at 40 µg/mL in the assay with HepG2 [3] came to 79%; in assay [4] it was 83.2%; in assay [5], 83.9%; with SGC-7901 [6], 82.7%.

For `O=C(NCc1ccccc1)c1cc2c([nH]c3ccccc32)c(C(=O)c2c[nH]c3ccccc23)n1`, the IC50 was 39.9 µM with SGC-7901 [1], 36.2 µM in the assay with HepG2 [2], 56.4 µM in assay [7] and 42.8 µM in assay [8]. Moreover, the inhibition of growth at 40 µg/mL was determined as 77.3% with HepG2 [3], 67.4% in assay [4], 75.5% in assay [5] and 79% in the assay on SGC-7901 [6].

On to `O=C(NCc1cccnc1)c1cc2c([nH]c3ccccc32)c(C(=O)c2c[nH]c3ccccc23)n1`, for which the IC50 is 33.1 µM in the assay with SGC-7901 [1], 18.5 µM with HepG2 [2], 25.2 µM in assay [7] and 20.8 µM in assay [8]. Besides, the inhibition of growth at 40 µg/mL with HepG2 [3] is 82.8%; in assay [4], 73.8%; in assay [5], 74.2%; with SGC-7901 [6], 70.1%.

Consider `O=C(NCCc1cccc(O)c1)c1cc2c([nH]c3ccccc32)c(C(=O)c2c[nH]c3ccccc23)n1`, for which the IC50 in the assay on SGC-7901 [1] stood at 17.7 µM; in the assay on HepG2 [2], 8.63 µM; in assay [7], 11.9 µM; in assay [8] it was 13.8 µM. Moreover, the inhibition of growth at 40 µg/mL in the assay with HepG2 [3] stood at 86.9%; in assay [4] it was 83.2%; in assay [5], 87.5%; with SGC-7901 [6] it was 88.3%.

Turning to `COC(=O)c1cc2c([nH]c3ccccc32)c(C(=O)c2c[nH]c3ccccc23)n1`, the IC50 (with SGC-7901 [1]; in the assay on HepG2 [2]; in assay [7]; in assay [8]) was more than 100 µM each time. Besides, the inhibition of growth at 40 µg/mL with HepG2 [3] was 62.7%; in assay [4] it was 35.9%; in assay [5] it was 36.8%; in the assay on SGC-7901 [6] it was 48.6%.

Take `O=C(NCc1ccccn1)c1cc2c([nH]c3ccccc32)c(C(=O)c2c[nH]c3ccccc23)n1`: the IC50 is 43.9 µM in the assay with SGC-7901 [1], 26.3 µM in the assay with HepG2 [2], 42.5 µM in assay [7] and 33.8 µM in assay [8]. The inhibition of growth at 40 µg/mL was 79.6% in the assay on HepG2 [3], 66.2% in assay [4], 70.7% in assay [5] and 69.5% with SGC-7901 [6].

For the compound `O=C(NCCc1ccccc1)c1cc2c([nH]c3ccccc32)c(C(=O)c2c[nH]c3ccccc23)n1`, the IC50 with SGC-7901 [1] turned out to be 23 µM; with HepG2 [2], 19.8 µM; in assay [7], 44.8 µM; in assay [8], 25.9 µM. The inhibition of growth at 40 µg/mL is 82.3% in the assay on HepG2 [3], 79.8% in assay [4], 77.1% in assay [5] and 84.5% in the assay with SGC-7901 [6].

In the case of `COc1cc(CNC(=O)c2cc3c([nH]c4ccccc43)c(C(=O)c3c[nH]c4ccccc34)n2)ccc1O`, the IC50 in the assay with SGC-7901 [1] is 16.2 µM; in the assay with HepG2 [2], 11.1 µM; in assay [7], 8.47 µM; in assay [8], 21.8 µM. The inhibition of growth at 40 µg/mL in the assay with HepG2 [3] was determined as 80.9%; in assay [4], 79.1%; in assay [5] it was 81.7%; in the assay with SGC-7901 [6], 83.1%.

The values above are taken from ChEMBL document CHEMBL4390660, “Synthesis and biological evaluation of marine alkaloid-oriented β-carboline analogues” (Eur J Med Chem, 2019).
